What was measured:
Assay in all cases: relative viability (nuclei count vs DMSO), 5 days (fraction); higher = more cells survive
R406 + OSI-027 = compound: COc1cc(Nc2ncc(F)c(Nc3ccc4c(n3)NC(=O)C(C)(C)O4)n2)cc(OC)c1OC [R406] + COc1cccc2cc(-c3nc([C@H]4CC[C@H](C(=O)O)CC4)n4ncnc(N)c34)[nH]c12 [OSI-027] (partner 0.5 µM)
Procedure, shortened: (§1)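 Each reported value is a median over duplicate plates. It expresses relative viability: treated-well nuclei count divided by vehicle-well nuclei count. Lung cancer cell lines in 1536-well plates were dosed by pin tool a day after seeding, alone with one drug or with a fixed anchor-drug dose plus five library-drug doses (not always all listed) in √10 steps, and nuclei were counted after 5 days.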

Daporinad + Linsitinib = compound: O=C(/C=C/c1cccnc1)NCCCCC1CCN(C(=O)c2ccccc2)CC1 [Daporinad] + C[C@]1(O)C[C@@H](c2nc(-c3ccc4ccc(-c5ccccc5)nc4c3)c3c(N)nccn32)C1 [Linsitinib] (partner 1 µM)
Procedure, shortened: as §1

R406 + Vorinostat = compound: COc1cc(Nc2ncc(F)c(Nc3ccc4c(n3)NC(=O)C(C)(C)O4)n2)cc(OC)c1OC [R406] + O=C(CCCCCCC(=O)Nc1ccccc1)NO [Vorinostat] (partner 1 µM)
Procedure, shortened: as §1

Daporinad + Navitoclax = compound: O=C(/C=C/c1cccnc1)NCCCCC1CCN(C(=O)c2ccccc2)CC1 [Daporinad] + CC1(C)CCC(c2ccc(Cl)cc2)=C(CN2CCN(c3ccc(C(=O)NS(=O)(=O)c4ccc(N[C@H](CCN5CCOCC5)CSc5ccccc5)c(S(=O)(=O)C(F)(F)F)c4)cc3)CC2)C1 [Navitoclax] (partner 0.5 µM)
Procedure, shortened: as §1

| Cell Line | relative viability (R406 + OSI-027; first compound 0.08 µM) | relative viability (R406 + OSI-027; first compound 0.253 µM) | relative viability (R406 + OSI-027; first compound 0.8 µM) | relative viability (R406 + OSI-027; first compound 2.53 µM) | relative viability (R406 + OSI-027; first compound 8 µM) | relative viability (Daporinad + Linsitinib; first compound 0.0005 µM) | relative viability (Daporinad + Linsitinib; first compound 0.001581 µM) | relative viability (Daporinad + Linsitinib; first compound 0.005 µM) | relative viability (Daporinad + Linsitinib; first compound 0.01581 µM) | relative viability (R406 + Vorinostat; first compound 0.08 µM) | relative viability (R406 + Vorinostat; first compound 0.253 µM) | relative viability (R406 + Vorinostat; first compound 0.8 µM) | relative viability (R406 + Vorinostat; first compound 2.53 µM) | relative viability (R406 + Vorinostat; first compound 8 µM) | relative viability (Daporinad + Navitoclax; first compound 0.0005 µM) | relative viability (Daporinad + Navitoclax; first compound 0.001581 µM) | relative viability (Daporinad + Navitoclax; first compound 0.005 µM) | relative viability (Daporinad + Navitoclax; first compound 0.01581 µM) |
| --- | --- | --- | --- | --- | --- | --- | --- | --- | --- | --- | --- | --- | --- | --- | --- | --- | --- | --- |
| HCC-366 | 0.938 | 1.02 | 1.04 | 0.0426 | 0.117 | 0.687 | 0.753 | 0.87 | 0.887 | 0.264 | 0.482 | 0.332 | 0.137 | 0.077 | 0.993 | 1.02 | 1.17 | 1.06 |
| HCC-827 | 0.771 | 0.778 | 0.826 | 0.611 | 0.507 | 1 | 0.998 | 1.02 | 0.921 | 0.791 | 0.853 | 0.892 | 0.788 | 0.817 | 1.12 | 1.03 | 1.05 | 1.08 |
| HOP-62 | 0.774 | 0.958 | 0.854 | 0.64 | 0.654 | – | 0.893 | 1.15 | 0.789 | 0.66 | 0.803 | 0.836 | 0.464 | 0.463 | 1.06 | 0.975 | 0.943 | 0.404 |
| IA-LM | – | – | – | – | – | 0.531 | 0.866 | 0.437 | 0.553 | 0.984 | 0.756 | 1.04 | 0.99 | 1.05 | 0.733 | 0.809 | 0.772 | 0.599 |
| LC-2-ad | 0.872 | 0.878 | 0.838 | 0.504 | 0.34 | 0.688 | 0.972 | 0.877 | 0.83 | 0.677 | 0.748 | 0.744 | 0.336 | 0.201 | 0.43 | 0.544 | 0.553 | 0.393 |
| LCLC-97TM1 | 0.461 | 0.586 | 0.618 | 0.221 | 0.215 | 0.204 | 0.235 | 0.193 | 0.17 | 0.732 | 0.908 | 1.38 | 0.569 | 0.468 | 0.365 | 0.506 | 0.37 | 0.571 |
| LCLC-103H | 0.419 | 0.453 | 0.536 | 0.362 | 0.331 | 1.01 | 1.2 | 1.16 | 1.21 | 0.729 | 0.764 | 0.834 | 0.779 | 0.566 | – | – | – | – |
| LK-2 | 0.218 | 0.215 | 0.186 | 0.149 | 0.146 | 0.665 | 0.648 | 0.362 | 0.196 | 0.205 | 0.404 | 0.293 | 0.291 | 0.237 | 0.865 | 1.04 | 0.583 | 0.393 |
| LOU-NH91 | 0.728 | 0.714 | 0.651 | 0.448 | 0.429 | 0.854 | 1.04 | 1.14 | 1.52 | 0.926 | 0.993 | 0.914 | 0.53 | 0.498 | 0.678 | 0.851 | 0.928 | 1.24 |
| LU99A | 0.322 | 0.283 | 0.308 | 0.253 | 0.276 | 0.497 | 0.55 | 0.604 | 0.572 | 0.519 | 0.484 | 0.553 | 0.361 | 0.312 | 0.71 | 0.833 | 0.94 | 0.931 |
| NCI-H358 | 0.752 | 0.678 | 0.893 | 0.208 | 0.118 | 0.64 | 0.822 | 0.882 | 0.791 | 0.766 | 0.726 | 0.722 | 0.314 | 0.273 | – | – | – | – |
| NCI-H522 | 0.681 | 0.742 | 0.954 | 0.501 | 0.593 | – | – | – | – | 0.937 | 1.04 | 1.01 | 0.838 | 0.812 | – | – | – | – |
| NCI-H650 | 0.453 | 0.553 | 0.465 | 0.45 | 0.344 | 0.832 | 1.3 | 0.883 | 1.16 | 0.494 | 0.442 | 0.495 | 0.439 | 0.331 | – | – | – | – |
| NCI-H661 | 0.674 | 0.819 | 0.702 | 0.501 | 0.38 | 0.488 | 0.555 | 0.561 | 0.405 | 0.813 | 0.772 | 0.737 | 0.796 | 0.724 | – | – | – | – |
| NCI-H1299 | – | – | – | – | – | 0.986 | 1.14 | 0.975 | 0.941 | – | – | – | – | – | 1.06 | 1.07 | 1.11 | 1.07 |
| NCI-H1563 | 0.736 | 0.734 | 0.831 | 0.638 | 0.543 | 1.29 | 1.21 | 1.07 | 0.739 | – | – | – | – | – | – | – | – | – |
| NCI-H1623 | 0.408 | 0.429 | 0.398 | 0.411 | 0.43 | – | – | – | – | – | – | – | – | – | – | – | – | – |
| NCI-H1648 | – | – | 0.255 | 0.249 | 0.28 | – | – | – | – | 0.457 | 0.427 | 0.562 | 0.468 | 0.643 | – | – | – | – |
| NCI-H1650 | 0.719 | 0.644 | 0.637 | 0.132 | 0.137 | – | – | – | – | 0.635 | 0.634 | 0.664 | 0.396 | 0.389 | 1.21 | 1.44 | 1.28 | 0.501 |
| NCI-H1703 | – | – | – | – | – | 0.77 | 1.27 | 0.996 | 0.626 | – | – | – | – | – | 1.16 | 1.2 | 0.816 | 0.335 |
| NCI-H1792 | 0.642 | 0.772 | 0.784 | 0.37 | 0.378 | 0.392 | 0.486 | 0.359 | 0.686 | – | – | – | – | – | 0.702 | 0.722 | 0.534 | 0.621 |
| NCI-H2170 | 0.734 | 0.654 | 0.688 | 0.415 | 0.648 | – | – | – | – | 0.799 | 0.791 | 0.987 | 0.571 | 0.658 | 0.619 | 0.561 | 0.637 | 0.825 |
| NCI-H2342 | 0.536 | 0.569 | 0.653 | 0.61 | 0.513 | – | – | – | – | 0.694 | 0.84 | 0.699 | 0.752 | 0.74 | – | – | – | – |
| SW 900 | 0.649 | 0.874 | 0.75 | 0.113 | 0.247 | – | – | – | – | 0.475 | 0.844 | 0.577 | 0.134 | 0.15 | – | – | – | – |

Reference: the supplement of paper PMC10307832
